From patent US10041096B2, “Methods and products for generating oils” (The Texas A&M University System, priority 2011, dated 2018)

Experiments:
Assay type in all cases: cell-based
P. Parvum [1] = assay: Oil secretion in P. Parvum cultures after glyburide (surface sheen, TLC of supernatant extract)
Experimental: A control culture of P. Parvum was grown and split into two 500 mL cultures. Glyburide was added to one of the cultures and the culture was shaken for 24 h.
A 1 L P. parvum culture (˜2 million cells/mL) treated with oxamate was split into two subcultures of 400 mL each. Glyburide dissolved in DMSO was added to one subculture. The other subculture received the DMSO carrier (control) that the glyburide had been dissolved in. The two cultures were incubated on the shaker for 24 h and subsequently off the shaker for ˜2 h.
The cells were then pelleted and a 200 mL sample of the culture supernatant was removed from each culture. Each of the removed samples was briefly extracted with nonpolar solvent. The organic extracts were then dried down and the remainder was resuspended in an equal volume of solvent. An equal volume of each (as well as pure TAG as a standard) was loaded on a TLC plate. A chromatogram was developed and stained with iodine vapors. […] Both subcultures had similar amounts of phospholipids (PL). This is likely due to the presence of dead cell membranes in the supernatant extract. Both test samples also had either some monoglycerides (MG) or more likely, the pigment fucoxanthin.

KAS603, a Chlorella sp. [2] = assay: Recovery and measurement of extracellular lipids (hexane sweep, weight, HPLC, TLC) after glyburide treatment; conditions: for Weights of oil recovered from outside cells following glyburide treatment: from 1 L of culture
Experimental: Glyburide Dosing: After 48 hours, the sodium oxamate time course was complete. A 1 L sample of each culture was collected and treated to recover oil outside the cells (if any) at t=0. The three cultures that had previously been treated with sodium oxamate were subsequently treated with 0.05 mM glyburide. Extracellular lipids in 1 L aliquots of the cultures were collected at 4 hours and 24 hours after the addition of glyburide by hexane sweep; dry cell weights were also calculated on separate aliquots of the culture. Oils recovered were analyzed via TLC and HPLC.
(§1) Algal growth: KAS603, a Chlorella sp. was scaled in F/2 growth medium to ˜300 L in a vertical air lift bioreactor under 12/12 artificial illumination. Growth of the culture was monitored for density, chlorophyll accumulation, and for the presence of invasive species. Growth kinetics were typical and observation of invasive species was limited (sparse bacteria) and typical. The algae were grown under nutrient rich and light limiting conditions.
(§2) Lipid Analyses: TLC—Dried extracts were resuspended in 100 μl of CHCl3. 2.5 μl of each sample was spotted onto silica gel matrix TLC plates (Sigma #2599) and resolved with hexane:diethyl ether:acetic acid (80:20:1). Carotenoids such as β-carotene were visible as yellow bands on the plate, while chlorophyll and chlorophyll breakdown products were visible as green or green/gray bands, respectively. Lipids other than carotenoids and chlorophyll were visualized with iodine vapors. The extracted samples were compared to commercially available lipid standards consisting of 1 μg/μl each of glyceryl trioleate (TAG), 1,3-Diolein (1,3 DAG), 1,2-dioleoyl-rac-glycerol (1,2 DAG), monoolein (MAG), and oleic acid (FFA).
Recovery and Measurement of Extracellular Lipids: Cells that were exposed to the secretion compound glyburide were swept briefly with hexane at room temperature. 50 ml of hexane was added to 1 L samples from each study group, then mixed thoroughly, but gently, by inversion. The cells were re-centrifuged and the hexane layer containing the recovered lipids was transferred to a pre-weighed vial. The hexane was evaporated and the dried lipids were re-weighed. The dried lipids were subsequently analyzed by TLC or HPLC/MS as described.

algal cells = assay: Nile Red fluorescence in growth medium after glyburide; conditions: following treatment with glyburide
KAS603, a Chlorella sp. [3] = assay: Culture growth: dry weight density and chlorophyll a during compound treatment; conditions: four 80 L cultures during the treatment period
Experimental: Algal growth: KAS603, a Chlorella sp. was scaled in F/2 growth medium to ˜300 L in a vertical air lift bioreactor under 12/12 artificial illumination. Growth of the culture was monitored for density, chlorophyll accumulation, and for the presence of invasive species. Growth kinetics were typical and observation of invasive species was limited (sparse bacteria) and typical. The algae were grown under nutrient rich and light limiting conditions. […] Dry Weight Analysis: 10 ml of control and treated culture samples were pelleted via centrifugation at 3000 rpm for 5 minutes. The pellet was washed 1× with dH2O to remove salts. Following a second centrifugation step, the pellet was transferred to a pre-weighed aluminum dish and dried to a constant weight at 26.5° C. Cellular Growth/Density: Cellular growth and density can be characterized by the concentration of chlorophyll a in a sample. Chlorophyll a absorbs light at 435 nm and 680 nm, which can be accurately measured spectrophotometrically. Prior to the dry weight analysis, 10 ml samples were analyzed for absorbance at 435 nm and 680 nm. Based on the established chlorophyll a standard curve, chlorophyll a was calculated and reported as “mg chlorophyll a”.

KAS603, a Chlorella sp. [4] = assay: Total lipid extraction with HPLC/TLC lipid profile after sodium oxamate treatment
Experimental: Sodium Oxamate Dosing: Sodium oxamate was added to three of the four cultures (see FIG. 1). A 1 L sample was collected at time 0, 24 and 48 hours for each culture (a total of 4 samples per time point). The algal cells were pelleted and oils extracted at each time point. Quantitative oil profiles of extracted lipids were generated by TLC and HPLC.
as §1
Total lipid extraction: 1 L samples were pelleted via centrifugation at 3000 rpm for 5 min. The pellets were resuspended in 10 ml of methanol and incubated at 65° C. for 1 h. The methanol was replaced with chloroform and incubated at 50° C. for 10 min. The chloroform was replaced with hexane and incubated at 50° C. for an additional 10 min. The extracts were pooled and distilled. The weights of the dried extracts were recorded prior to resuspension in 100 μl chloroform for TLC analysis, or in 2:1 chloroform:methanol (v/v) to a final concentration of ˜10 mg/mL and loaded for HPLC analysis (Surveyor LC Pump and Autosampler Plus, Thermo Finnegan). A splitter (Analytical Scientific Instruments) was employed to divide the sample 1:20 between a quadrapole MS (Thermo Finnegan MSQ Plus) and an ELSD (Sedere Sedex 75), respectively.
as §2

P. Parvum [5] = assay: Growth curves of oxamate treated algae (spike-in); conditions: small-scale cultures, oxamate added every three days, vs growth medium only
Experimental: Small-scale […] P. Parvum cultures were grown and treated with oxamate. Four (A-D in FIG. 13) of the small scale cultures were treated with oxamate stock in growth medium, added every three days, corresponding to the points on the curve. Two (E-F in FIG. 13) of the cultures had only growth medium added.

Chlorella sp. = assay: Nile Red fluorescence within cells after sodium oxamate; conditions: range of sodium oxamate concentrations
Schizochytrium sp. = assay: as above; conditions: range of sodium oxamate concentrations
P. Parvum [6] = assay: as above; conditions: range of sodium oxamate concentrations

## COc1ccc(Cl)cc1C(=O)NCCc1ccc(S(=O)(=O)NC(=O)NC2CCCCC2)cc1 [glyburide]
P. Parvum [1]; 500 mL culture, glyburide 24 h, no oxamate, vs control culture
  oily sheen on the culture surface: much more prevalent
P. Parvum [1]; glyburide/oxamate-treated subculture vs DMSO control on oxamate
  lipid (TAG) in culture supernatant extract, TLC: increase the production and/or secretion of lipid, specifically triacylglyceride (TAG)
P. Parvum [1]; oxamate treated culture, 400 mL subculture, glyburide in DMSO 24 h, control had very few swirls
  swirls of secreted oil on the culture surface: a number of swirls on the surface
KAS603, a Chlorella sp. [2]; 0.05 mM glyburide for 24 hrs
  β-carotene and chlorophyll outside the cells (HPLC): neither β-carotene nor chlorophyll were detected outside the cells
KAS603, a Chlorella sp. [2]; 0.05 mM glyburide, control group not coloured
  appearance of raw hexane extractions: visibly colored
KAS603, a Chlorella sp. [2]; 4 hours after glyburide
  external oil recovered by hexane sweep (in words): no immediate increases in external oil
KAS603, a Chlorella sp. [2]; 24 hours after glyburide exposure
  external oil recovered by hexane sweep (in words): significantly larger quantities of oil were recovered
KAS603, a Chlorella sp. [2]; T = 0 (at glyburide addition), cultures pre-treated 48 h with 0.3 mM sodium oxamate, listed as GLB1
  Weights of oil recovered from outside cells following glyburide treatment: 0.0003 g
KAS603, a Chlorella sp. [2]; T = 0 (at glyburide addition), cultures pre-treated 48 h with 0.3 mM sodium oxamate, listed as GLB2
  Weights of oil recovered from outside cells following glyburide treatment: 0.0002 g
KAS603, a Chlorella sp. [2]; T = 0 (at glyburide addition), cultures pre-treated 48 h with 0.3 mM sodium oxamate, listed as GLB3
  Weights of oil recovered from outside cells following glyburide treatment: 0.0003 g
KAS603, a Chlorella sp. [2]; T = 4 hours after 0.05 mM glyburide, oxamate pre-treated cultures, listed as GLB1
  Weights of oil recovered from outside cells following glyburide treatment: 0.0002 g
KAS603, a Chlorella sp. [2]; T = 4 hours after 0.05 mM glyburide, oxamate pre-treated cultures, listed as GLB2
  Weights of oil recovered from outside cells following glyburide treatment: 0.0004 g
KAS603, a Chlorella sp. [2]; T = 4 hours after 0.05 mM glyburide, oxamate pre-treated cultures, listed as GLB3
  Weights of oil recovered from outside cells following glyburide treatment: 0.0004 g
KAS603, a Chlorella sp. [2]; T = 24 hours after 0.05 mM glyburide, oxamate pre-treated cultures, listed as GLB1
  Weights of oil recovered from outside cells following glyburide treatment: 0.0016 g
KAS603, a Chlorella sp. [2]; T = 24 hours after 0.05 mM glyburide, oxamate pre-treated cultures, listed as GLB2
  Weights of oil recovered from outside cells following glyburide treatment: 0.0014 g
KAS603, a Chlorella sp. [2]; T = 24 hours after 0.05 mM glyburide, oxamate pre-treated cultures, listed as GLB3
  Weights of oil recovered from outside cells following glyburide treatment: 0.0013 g
KAS603, a Chlorella sp. [2]; glyburide treated groups vs control
  quantity of lipid species of intermediate polarity (between FFA and 1,3DG) in extracellular lipids, TLC: significantly increased
KAS603, a Chlorella sp. [2]; glyburide treated vs untreated, 24 h
  external hydrocarbon (HPLC): An increase in external hydrocarbon
Algal cells
  Nile Red fluorescence in the growth medium environment: an increase in Nile Red fluorescence
KAS603, a Chlorella sp. [3]
  effect of compound treatment on culture growth: no evidence that compound treatment slowed growth

## NC(=O)C(=O)[O-].[Na+] [sodium oxamate]
KAS603, a Chlorella sp. [4]; 0.3 mM sodium oxamate at 48 h vs untreated control at time 0
  uncharacterized polar lipids (HPLC): increases in uncharacterized polar lipids
KAS603, a Chlorella sp. [4]; 0.3 mM sodium oxamate, treated versus untreated groups
  chlorophyll and total lipids in total extracts (HPLC): increases in chlorophyll and total lipids were detected
KAS603, a Chlorella sp. [4]; 0.3 mM sodium oxamate, up to 48 h
  TAG accumulation in oil extracts: Significant TAG accumulation was not found
KAS603, a Chlorella sp. [4]; oxamate treated cultures vs untreated
  quantity of "other" lipid species: trended higher
KAS603, a Chlorella sp. [4]; oxamate treated vs untreated groups
  undefined lipids (UN) in total extracts by TLC: did not differ between treated and untreated groups
KAS603, a Chlorella sp. [4]; throughout the oxamate treatment phase
  Hydrocarbon (HC) and β-carotene (BC) concentrations, TLC of total extracts: remained consistent
P. Parvum [5]
  cell concentrations achieved: higher cell concentrations than did the controls
  onset of culture decline: began to decline sooner than the controls
Chlorella sp.
  Nile Red fluorescence within cells: increases in Nile Red fluorescence
Schizochytrium sp.
  Nile Red fluorescence within cells: increases in Nile Red fluorescence
P. Parvum [6]
  Nile Red fluorescence within cells: increases in Nile Red fluorescence
KAS603, a Chlorella sp. [3]
  effect of compound treatment on culture growth: no evidence that compound treatment slowed growth
